Measurements: publication PMC9923641 (Molecular Biotechnology, 2023)

Target: α-glucosidase
Assay: enzyme inhibition assay with p-nitrophenyl-D-glycopyranoside substrate
Format: biochemical

Row | SMILES | IC50 [nM]
1 | COc1cccc(O)c1-c1cc(=O)c2c(O)c(OC)c(OC)c(OC)c2o1 [Skullcapflavone II] | 95 ± 11.5
2 | COc1cc(O)c2c(=O)cc(-c3ccccc3O)oc2c1OC [Skullcapflavone I] | 103 ± 8.43
